Patent publication US20170211048A1, “ENHANCED REPROGRAMMING TO IPS CELLS” (Boehringer Ingelheim International GmbH, priority 2014, published 2017)

Assays:
Format in all cases: cell-based, mouse
[1] = tested on: Reprogrammable transgenic MEFs (Tet-OKSM, Rosa26-rtTAM2, Oct4-GFP); assay: transient siRNA transfection during iPSC reprogramming; details: siRNA transfected 1 to 3 times during doxycycline treatment
Excerpt: FIG. 26: Transient suppression of Chaf1a, Chaf1b or Ube2i using siRNA transfection enhances iPSC reprogramming. Reprogrammable transgenic MEFs (Tet-OKSM, Rosa26-rtTAM2, Oct4-GFP) where transfected 1 to 3 times at the indicated days of doxycyline treatment with siRNAs targeting Renilla, Chaf1a, Chaf1b, Ube2i. Shown is the fraction of Oct4-GFP positive cells after 11 days. […] Suppression of these targets at early time points of reprogramming (day 1-3 following OKSM expression) seems critical and sequential transfections at different days can enhance this effect. […] The siRNA molecules used in the study have the following sequence: Ube2i.414—2: […] (SEQ ID NO:103), Chaf1a.3120 […] (SEQ ID NO:104), Chaf1b.271 […] (SEQ ID NO:105) and Ren.713 […] (SEQ ID NO:106).

[2] = tested on: Oct4-GFP;CAGGS-rtTA3 double-transgenic MEFs; assay: short-term transient OKSM expression and Tet-regulated shRNA; details: doxycycline for 2 or 4 days
Method: FIG. 22: Short-term transient expression of OKSM and suppression of Chaf1a for only 2-4 days enable robust iPSC reprogramming. Oct4-GFP;CAGGS-rtTA3 double-transgenic MEFs were first transduced with a Tet-regulatable shRNA expression vector encoding a potent Chaf1a shRNA (T3G-mCherry-miRE.Chaf1a.3118), and 3 days later transduced with lentiviral vectors inducibly expressing OKSM from the Tet-responsive promoters TRE (TetO-STEMCCA) or TRE3G (T3G-4Fpuro). Cell were treated with doxycyline for 2 or 4 days starting at day in OKSM infection, triggering a transient and reversible OKSM expression and Chaf1a suppression. Shown is the percentage of Oct4-GFP positive cells at day 11 after lentiviral infection. Error bars indicate standard deviation (SD) of 3 biological replicates. Suppression of Chaf1a, Chaf1b and Ube2i enhance iPSC reprogramming in the use of both Tet-inducible OKSM expression vectors.

OSKM/RR/OG-MEFs = assay: single-shRNA validation, flow cytometry of the Oct4-GFP reporter; details: FIG. 1, day 11 after doxycycline induction; DMEM with FCS and ascorbate
Method: To validate hits identified in the primary multiplexed screen, a set of 32 independent shRNAs including several of the top hits as well as a panel of intermediately scoring shRNAs were tested in single assays. To this end, OSKM/RR/OG-MEFs were transduced with individual pLENC shRNAs in biological triplicates, selected, and treated with Dox for OSKM induction. The iPS reprogramming efficacy was quantified using flow cytometry analysis of the Oct-4-GFP reporter (FIG. 1) and microscopy (FIG. 2a).
To this end, described MEFs with doxycycline inducible reprogramming factors (OSKM, 4F, Yamanaka factors) were transduced with pLENC-shRNA vectors (co-expressing miRE-based shRNAs, mCherry and a Neo resistance gene) in biological triplicate as described previously. Selection for infected cells was based on G418 resistance. 3 days after infection, cells were trypsinized and each replicate was plated in multiple wells in presence of FCS and ascorbate containing medium as well as doxycycline. Cells were subjected to various conditions for iPS formation starting 24 h after Doxycycline addition, i.e. prior to expected full expression of OSKM factors. Doxycycline was added to media for 7 days. […]
shRNAs were transduced into OSKM MEFs. […] Cells were analyzed using a FACS BD LSRFortessa.

[3] = tested on: MEFs with doxycycline inducible reprogramming factors; assay: iPS colony formation assay in serum replacement, LIF and 2i; details: 2i plus LIF at single cell density, 10000 cells/10 cm dish, doxycycline 7 days
Excerpt: In order to test the achieved factor of iPS formation enhancement in a colony formation assay, we chose optimal conditions described for iPS formation, i.e. serum replacement, LIF and 2i. The two inhibitors (2i) are shown to support the ground state of pluripotency and enhance iPS formation. More specifically, 2i supports the transition of pre-iPS cells to iPS cells.
In doing so, we intended to measure the factor of improvement in optimal, potentially saturated conditions. 10000 cells were plated/10 cm dish and reprogramming was induced by addition of doxycycline for 7 days. Reprogramming in presence of 2i furthermore represents an additional condition to test versatility of herein described enhanced reprogramming regimen. […]

reprogrammable MEFs = assay: FACS based timeline of Oct4-GFP expression during reprogramming; details: days of OKSM expression, FIG. 3
Excerpt: In order to observe the kinetics of reprogramming in the enhanced reprogramming regimen, we quantified GFP positive cells using FACS analysis. GFP driven from the endogenous Oct4 locus serves as a marker for Oct4 expression and thus iPS and possibly pre-iPS state. […] In contrast, Ube2i suppression only slightly accelerated the reprogramming timeline, but made the process much more efficient, and ultimately exceeds the effects of observed for Caf-1 suppression (i.e. the percentage of GFP+ cells actually overtakes the enhancement achieve through Caf-1 suppression at day 10).
The inventors further decided to examine the effects of the gene expression reduction in the absence of the identified chromatin barriers, by following the emergence of Oct4-GFP^+ cells over time. While suppression of Ube2i promoted Oct4-GFP activation slightly earlier than controls (day six with Ube2i shRNA vs. day nine with Renilla shRNA), the suppression of either CAF-1 subunit triggered a dramatic acceleration of this process and consistently generated Oct4-GFP+ cells as early as four days of OKSM expression (FIG. 3). Similar effects were observed by flow cytometry-based analysis of Nanog expression (FIG. 15).

“CACAATTTACTGCCAAAACAA (listed as DNA, chemistry not fully specified) [Ube2i.414—2]” was tested, and the “effect on fraction of Oct4-GFP positive cells after 11 days” value [1] was “enhances reprogramming”.
In the case of “CAGCTACTTCCAAATTGTAAA (listed as DNA, chemistry not fully specified) [Chaf1a.3120]”, the “effect on fraction of Oct4-GFP positive cells after 11 days” value [1] is reported as “enhances reprogramming”.
“UUUACAAUUUGGAAGUAGCUG (expressed or natural sequence) [Chaf1a.3118]” was tested, and the “iPS cell formation (Oct4-GFP positive cells at day 11)” value [2] was “robust formation of iPS cells”.
For “shRNA.Ren.713: neutral control shRNA (Ren.713) targeting Renilla (guide AGGAATTATAATGCTTATCTA)”, the “Oct4-GFP+ cells” value (OSKM/RR/OG-MEFs) was < 1%, the Colony number [3] was 0 and the “time of Oct4-GFP activation” value (reprogrammable MEFs) was “day nine”.
